Results reported in US20240041806A1, “Eyedrops for Inhibiting Myopia Progression in Children and Screening Method for Inhibitor of Myopia Progression in Children” (Tsubota Laboratory, Inc., priority 2020, published 2024).
“Also recorded” adds a separate entry of the source. Where two headings read alike, the source gives them in different places.

Columns and labels:
[1] = test system: myopia-induced juvenile mouse; test: Lens-induced myopia (-30 D lens) in juvenile mouse: axial length (SD-OCT) and refraction; format: in vivo, mouse (C57BL6J); settings: for axial elongation of myopia-induced eye / myopic refraction of myopia-induced eye / axial elongation of control eye in which myopia had not been induced: eyedrop once a day for 10 days, 60 μM STF, 100 μM other inhibitors; for axial elongation of myopia-induced eye / myopic refraction of myopia-induced eye: -30 D lens eye; for axial elongation of control eye in which myopia had not been induced: compared with DMSO eyedrop
[2] = test system: endoplasmic reticulum stress response genes (PERK pathway and ATF6 pathway) in the sclera; settings: FIG. 8
Experimental: A solution of sodium phenylbutyrate in PBS (4-PBA; 200 mg/kg) or tauroursodeoxycholic acid (TUDCA; 100 mg/kg) was intraperitoneally injected (i.p.) every day during the myopia induction period. Quantitative real-time PCR was performed using StepOnePlus Realtime PCR system with PowerUp SYBR Green Master Mix (Applied Biosystems, CA, USA). Expression level was standardized using β-actin. FIG. 8 illustrates change in gene expression obtained after intraperitoneal injection of 4-PBA every day through the myopia induction period. […] Besides, FIG. 10 illustrates axial elongation (a) and refraction change (b) obtained by eyedrop administration of 0.2% or 2% 4-PBA to a mouse during myopia induction. FIG. 11 illustrates axial elongation (b) and refraction change (a) obtained by intraperitoneal injection of TUDCA every day over the myopia induction period.

[3] = test system: lens of myopia-induced juvenile mouse; settings: -30 D lens wearing group
Experimental: It was examined whether or not a difference in the dosage form of 4-PBA affects the change in the lens. In accordance with the description given above in “Experimental Method”, 4-PBA was eye-dropped or intraperitoneally administered to a myopia-induced juvenile mouse, and the thickness of the lens was measured with SD-OCT in the same manner as in the measurement of the axial length.

[4] = eyedrop administration of 2% 4-PBA as printed, 1st and 3rd weeks, FIG. 9

Compound: Cc1cc(=O)oc2c(C=O)c(O)ccc12 [4μ8C]
- axial elongation of myopia-induced eye [1]: neither axial elongation nor myopic refraction was inhibited
- myopic refraction of myopia-induced eye [1]: neither axial elongation nor myopic refraction was inhibited

Compound: O=C(Nc1cnn(Cc2ccc(C(F)(F)F)cc2C(F)(F)F)c1)c1cc(-c2ccco2)on1 [Ceapin-A7]
- axial elongation of myopia-induced eye [1]: neither axial elongation nor myopic refraction was inhibited
- myopic refraction of myopia-induced eye [1]: neither axial elongation nor myopic refraction was inhibited
- axial elongation of control eye in which myopia had not been induced [1]: the eye axis of the control eye also elongated

Compound: Cn1cc(-c2ccc3c(c2)CCN3C(=O)Cc2cccc(C(F)(F)F)c2)c2c(N)ncnc21 [GSK2606414]
- axial elongation of myopia-induced eye [1]: neither axial elongation nor myopic refraction was inhibited
- myopic refraction of myopia-induced eye [1]: neither axial elongation nor myopic refraction was inhibited
- axial elongation of control eye in which myopia had not been induced [1]: the eye axis of the control eye also elongated

Compound: C[C@H](CCC(=O)NCCS(=O)(=O)O)[C@H]1CC[C@H]2[C@@H]3[C@@H](O)C[C@@H]4C[C@H](O)CC[C@]4(C)[C@H]3CC[C@]12C [TUDCA, tauroursodeoxycholic acid]
- physiological axial elongation ([1]; intraperitoneal TUDCA 100 mg/kg every day during myopia induction, FIG. 11): did not inhibit physiological axial elongation
- myopic refraction ([1]; intraperitoneal TUDCA 100 mg/kg every day during myopia induction, FIG. 11(a)): myopic refraction is inhibited
- axial elongation (pathologic axial elongation) ([1]; intraperitoneal TUDCA 100 mg/kg every day during myopia induction, FIG. 11(b)): inhibited pathologic axial elongation; also recorded: axial elongation is inhibited

Compound: Sodium phenylbutyrate [4-PBA]
- expression of endoplasmic reticulum stress response genes in sclera of myopia induced eyes ([2]; 4-PBA 200 mg/kg/day intraperitoneal vs PBS): the increase is inhibited
- expression of genes disposed downstream of the PERK pathway and the ATF6 pathway ([2]; eyedrop administration of 2% 4-PBA as printed): significantly inhibited
- lens thickening caused by myopia induction (LIM) ([3]; eyedrop administration of 4-PBA, FIG. 14(B)): lens thickening was not caused
- lens thickening caused by myopia induction (LIM) ([3]; intraperitoneal administration of 4-PBA, FIG. 14(A)): did not affect lens thickening
- axial elongation, dose dependence ([1]; eyedrop administration of 0.2% or 2% 4-PBA during myopia induction, FIG. 10(a)): dose-dependent effectiveness was found; also recorded: inhibits axial elongation dose-dependently
- myopic refraction, dose dependence ([1]; eyedrop administration of 0.2% or 2% 4-PBA during myopia induction, FIG. 10(b)): dose-dependent effectiveness was found; also recorded: inhibits myopic refraction dose-dependently
- axial elongation [1, 4]: significantly inhibited to the same extent
- myopic refraction [1, 4]: significantly inhibited to the same extent
- axial elongation ([1]; intraperitoneal 4-PBA 200 mg/kg/day, 1st week and 3rd week of myopia induction (LIM), FIG. 9(a)): the axial elongation is inhibited
- myopic refraction ([1]; intraperitoneal 4-PBA 200 mg/kg/day, 1st week and 3rd week of myopia induction (LIM), FIG. 9(b)): the myopic refraction is inhibited
